The values that follow come from patent publication US6376485B1, “Benzoxazoles with PDE-inhibiting activity” (Byk Gulden Lomberg Chemische Fabrik GmbH, priority 1998, dated 2002).

Structures are written as SMILES.

One data set has as its system PDE4. As to the kind of experiment: Inhibition of PDE4 activity (method of Bauer and Schwabe, adapted to microtiter plates). Format: biochemical. Conditions: inhibitory concentration as -log IC50 (mol/l). How it is done:
The activity test was carried out according to the method of Bauer and Schwabe, which was adapted to microtiter plates (Naunyn-Schmiedeberg's Arch. Pharmacol. 1980, 311, 193-198). In this test, the PDE reaction takes place in the first step. In a second step, the resulting 5′-nucleotide is cleaved by a 5′-nucleotidase of the snake venom from Crotalus atrox to give the uncharged nucleoside. In the third step, the nucleoside is separated from the remaining charged substrate on ion-exchange columns. The columns are eluted directly into minivials to which 2 ml of scintillator fluid is additionally added for counting […].
The inhibitory values determined for the compounds according to the invention [inhibitory concentration as -log IC50 (mol/l)] results from the following Table A, in which the numbers of the compounds correspond to the numbers of the examples.

Regarding `COc1ccc(C2(C#N)CCC(C(N)=O)CC2)c2nc(C(C)C)oc12` (stereo not drawn) [Compound 7, Cis-4-Cyano-4-(2-isopropyl-7-methoxybenzoxazol-4-yl)cyclohexane-1-carboxamide], the melting point (in general, the temperature of the solid-liquid transition) was 228 °C. Also, the “Inhibition of the PDE4 activity, -log IC50” value in the data set on PDE4 turned out to be 7.65 mol/l.
Taken in the same sequence, the figures for `COC(=O)C1CCC(C#N)(c2ccc(OC)c3oc(C(C)C)nc23)CC1` (stereo not drawn) [Compound 5, Methyl cis-4-cyano-(2-isopropyl-7-methoxybenzoxazol-4-yl)cyclohexane-1-carboxylate] were 83 °C and 6.46 mol/l.
The like results for `COc1ccc(C2(C#N)CCOCC2)c2nc(C)oc12` [Compound 1, 4a-Cyano-4e-(2-methyl-7-methoxybenzoxazol-4-yl)tetrahydropyran] were, in that order, 72 °C and 6.87 mol/l.
The like results for `COc1ccc(C2(C#N)CCOCC2)c2nc(C(C)C)oc12` [Compound 2, 4a-Cyano-4e-(2-isopropyl-7-methoxybenzoxazol-4-yl)-tetrahydropyran] were, in that order, 156.5 °C and 7.86 mol/l.
In turn, `COc1ccc(C2(C#N)CCC(C(=O)O)CC2)c2nc(C(C)C)oc12` (stereo not drawn) [Compound 6, cis-4-Cyano-4-(2-isopropyl-7-methoxybenzoxazol-4-yl)cyclohexane-1-carboxylic acid] registered a melting point of 217.5 °C. Also, in the data set with PDE4, the “Inhibition of the PDE4 activity, -log IC50” value was found to be 7.69 mol/l.
Taken in the same sequence, the figures for `COc1ccc(C2(C#N)CCC(=O)CC2)c2nc(C(C)C)oc12` [Compound 3, 4-Cyano-4-(2-isopropyl-7-methoxybenzoxazol-4-yl)cyclohexanone] were 118 °C and 6.96 mol/l.
The like results for `COc1ccc(C2(C#N)CCC(O)CC2)c2nc(C(C)C)oc12` (stereo not drawn) [Compound 4, cis-4-Cyano-4-(2-isopropyl-7-methoxybenzoxazol-4-yl)cyclohexan-1-ol] were, in that order, 116.5 °C and 7.77 mol/l.
